Laboratory results: US20130344026A1, “Dimeric Smac Mimetics” (priority 2009, published 2013)
Where two headings read alike, the source gives them in different places.

Columns and labels:
HCC461 = assay: cell viability assay in HCC461, compound alone; assay type: cell-based
PANC-1 cells = assay: cell viability assay in PANC-1 cells (compound alone, + 100 ng/ml TNFa, + 300 ng/ml TRAIL); assay type: cell-based
[1] = HCC461, HCC461 cells, compound alone, read-out: IC50 (uM) in cell viability assay in HCC461
[2] = HCC461, HCC461, Tables 15-18, read-out: IC50 (uM) in cell viability assay in HCC461
[3] = Homo sapiens, PANC-1, compound alone, Tables 6-10, read-out: IC50 (μM) in cell viability assay in PANC-1 cells: Compound alone
[4] = with 100 ng/ml TNFa, Tables 6-10, read-out: IC50 (μM) in cell viability assay in PANC-1 cells: Compound + 100 ng/ml TNFa
[5] = with 300 ng/ml TRAIL, Tables 6-10, read-out: IC50 (μM) in cell viability assay in PANC-1 cells: Compound + 300 ng/ml TRAIL
[6] = Homo sapiens, PANC-1, compound alone, Tables 15-18, read-out: IC50 (uM) in cell viability assay in PANC-1 cells: Cmpnd alone
[7] = with 100 ng/ml TNFa, Tables 15-18, read-out: IC50 (uM) in cell viability assay in PANC-1 cells: Cmpnd + 100 ng/ml TNFa
[8] = with 300 ng/ml TRAIL, Tables 15-18, read-out: IC50 (uM) in cell viability assay in PANC-1 cells: Cmpnd + 300 ng/ml TRAIL

Structure (SMILES)	IC50 (PANC-1 cells; [3])	IC50 (PANC-1 cells; [4])	IC50 (PANC-1 cells; [5])	also measured
CN[C@@H](C)C(=O)N[C@H](C(=O)N1C[C@@H](NC(=O)C[C@H](NC(=O)OCC2c3ccccc3-c3ccccc32)C(=O)N[C@H]2C[C@@H](C(=O)N[C@@H]3CCCc4ccccc43)N(C(=O)[C@@H](NC(=O)[C@H](C)NC)C(C)(C)C)C2)C[C@H]1C(=O)N[C@@H]1CCCc2ccccc21)C(C)(C)C [Compound P3-66]	–	–	–	IC50 (HCC461; [1]): 0.258 µM
CN[C@@H](C)C(=O)N[C@@H](CCC(=O)O)C(=O)N1C[C@@H](NC(=O)c2cccc(C(=O)N[C@H]3C[C@@H](C(=O)N[C@@H]4CCCc5ccccc54)N(C(=O)[C@@H](NC(=O)[C@H](C)NC)C(C)(C)C)C3)c2)CC1C(=O)N[C@H](C)c1ccccc1 (stereo partly shown) [Compound 147]	–	–	–	IC50 (HCC461; HCC461, HCC461, Tables 6-9, read-out: IC50 (μM) in cell viability assay in HCC461): 0.185 µM
CN[C@@H](C)C(=O)N[C@H](C(=O)N1C[C@@H](NC(=O)c2cccc(C(=O)N[C@H]3C[C@@H](C(=O)N[C@H](C)c4ccccc4)N(C(=O)[C@@H](NC(=O)[C@H](C)NC)C(C)C)C3)c2)C[C@H]1C(=O)N[C@H](C)c1ccccc1)C(C)C [Compound P3-80]	–	–	–	IC50 (HCC461; [1]): 0.053 µM
CN[C@@H](C)C(=O)N[C@H](C(=O)N1C[C@@H](NC(=O)C(C)C(C)C(=O)N[C@H]2C[C@@H](C(=O)N[C@@H]3CCCc4ccccc43)N(C(=O)[C@@H](NC(=O)[C@H](C)NC)C(C)(C)C)C2)C[C@H]1C(=O)N[C@@H]1CCCc2ccccc21)C(C)(C)C (stereo partly shown) [Compound P3-24]	–	–	–	IC50 (HCC461; [1]): 0.006 µM
CN[C@@H](C)C(=O)N[C@H](C(=O)N1C[C@@H](NC(=O)CCCCC(=O)N[C@H]2C[C@@H](C(=O)N[C@@H]3CCCc4ccccc43)N(C(=O)[C@@H](NC(=O)[C@H](C)NC)C(C)(C)C)C2)C[C@H]1C(=O)N[C@@H]1CCCc2ccccc21)C(C)(C)C [Compound P3-22]	–	–	–	IC50 (HCC461; [1]): 0.003 µM
CN[C@@H](C)C(=O)N[C@H](C(=O)N1CCC[C@H]1C(=O)N[C@H](CNC(=O)[C@H]1CC[C@@](C)(C(=O)NC[C@@H](NC(=O)[C@@H]2CCCN2C(=O)[C@@H](NC(=O)[C@H](C)NC)C(C)(C)C)c2ccccc2)C1(C)C)c1ccccc1)C(C)(C)C [Compound P4-15]	–	–	–	IC50 (HCC461; [2]): 0.085 µM
CN[C@@H](C)C(=O)N[C@@H](CCCCCC[C@H](NC(=O)[C@H](C)NC)C(=O)N1CCC[C@H]1C(=O)NC1CCCC2CCCCC21)C(=O)N1CCC[C@H]1C(=O)NC1CCCC2CCCCC21 (stereo partly shown) [Compound P2-23]	–	–	–	IC50 (HCC461; [2]): 0.055 µM
CN[C@@H](C)C(=O)N[C@H](C(=O)N1C[C@@H](NC(=O)c2cccnc2-c2ncccc2C(=O)N[C@H]2C[C@@H](C(=O)NC3CCCc4ccccc43)N(C(=O)[C@@H](NC(=O)[C@H](C)NC)C(C)(C)C)C2)CC1C(=O)N[C@@H]1CCCc2ccccc21)C(C)(C)C (stereo partly shown) [Compound P3-39]	–	–	–	IC50 (HCC461; [1]): 0.006 µM
CN[C@@H](C)C(=O)N[C@H](C(=O)N1C[C@@H](NC(=O)c2cc(N)cc(C(=O)N[C@H]3C[C@@H](C(=O)NC4c5ccccc5-c5ccccc54)N(C(=O)[C@@H](NC(=O)[C@H](C)NC)C(C)(C)C)C3)c2)C[C@H]1C(=O)NC1c2ccccc2-c2ccccc21)C(C)(C)C [Compound P3-61]	–	–	–	IC50 (HCC461; [1]): 0.02 µM
CN[C@@H](C)C(=O)N[C@H](C(=O)N1C[C@@H](NC(=O)c2cccc(C(=O)N[C@H]3C[C@@H](C(=O)NC4CCCc5cccc(F)c54)N(C(=O)[C@@H](NC(=O)[C@H](C)NC)C(C)(C)C)C3)c2)C[C@H]1C(=O)NC1CCCc2cccc(F)c21)C(C)(C)C (single isomer, unassigned) [Compound 70]	> 1 µM	0.0011 µM	0.0033 µM	–
CN[C@@H](C)C(=O)N[C@@H](CCCCNC(=O)c1cccc(C(=O)NCCCC[C@H](NC(=O)[C@H](C)NC)C(=O)N2CCC[C@H]2Cn2nnnc2Sc2ccccc2)c1)C(=O)N1CCC[C@H]1Cn1nnnc1Sc1ccccc1 [Compound 207]	> 1 µM	0.263 µM	0.398 µM	–
CN[C@@H](C)C(=O)N[C@H](C(=O)N1CCC[C@H]1c1nc(C(=O)NCCC#CC#CCCNC(=O)c2nc([C@@H]3CCCN3C(=O)[C@@H](NC(=O)[C@H](C)NC)C(C)(C)C)oc2-c2c[nH]c3ccccc23)c(-c2c[nH]c3ccccc23)o1)C(C)(C)C [Compound P4-24]	–	–	–	IC50 (PANC-1 cells; [6]): > 1 µM
CC[C@H](NC)C(=O)N[C@H](C(=O)N[C@@H](CCNC(=O)c1ccc2cc(C(=O)N[C@H]3C[C@@H](C(=O)N[C@@H]4CCCc5ccccc54)N(C(=O)[C@@H](NC(=O)[C@H](C)NC)C(C)(C)C)C3)ccc2c1)C(=O)N[C@H](C)C(C)C)C1CCCCC1 [Compound H-11]	–	–	–	IC50 (PANC-1 cells; [6]): > 1 µM
CN[C@@H](C)C(=O)N[C@H](C(=O)N1C[C@H](NC(=O)c2ccc(CCc3ccc(C(=O)N[C@@H]4C[C@@H](C(=O)N[C@@H]5CCCc6ccccc65)N(C(=O)[C@@H](NC(=O)[C@H](C)NC)C(C)(C)C)C4)cc3)cc2)C[C@H]1C(=O)N[C@@H]1CCCc2ccccc21)C(C)(C)C [Compound P2-46]	–	–	–	IC50 (PANC-1 cells; [6]): > 1 µM; IC50 (PANC-1 cells; [7]): 0.0007 µM; IC50 (PANC-1 cells; [8]): 0.0009 µM
CN[C@@H](C)C(=O)N[C@@H](CCCCCC[C@H](NC(=O)[C@H](C)NC)C(=O)N[C@H]1c2ccccc2C[C@@H]1NC(=O)c1c(OC)cccc1OC)C(=O)N[C@H]1c2ccccc2C[C@@H]1NC(=O)c1c(OC)cccc1OC [Compound 59]	> 1 µM	> 1 µM	> 1 µM	–
CN[C@@H](C)C(=O)N[C@H](C(=O)N[C@@H](CCNC(=O)c1cc(C(=O)N[C@H]2C[C@@H](C(=O)N[C@@H]3CCCc4ccccc43)N(C(=O)[C@@H](NC(=O)[C@H](C)NC)C(C)(C)C)C2)cc([N+](=O)[O-])c1)C(=O)N[C@@H]1CCCc2ccccc21)C(C)C [Compound 182]	> 1 µM	0.043 µM	0.08 µM	–
CN[C@@H](C)C(=O)N[C@H](C(=O)N1CCCC1C(=O)N[C@H](COCC#CC#CCOC[C@@H](NC(=O)[C@H](C)NC(=O)[C@H](NC(=O)[C@@H](C)NC)C1CCCCC1)C(C)C)C1CCCCC1)C(C)(C)C (stereo partly shown) [Compound H-7]	–	–	–	IC50 (PANC-1 cells; [6]): > 1 µM; IC50 (PANC-1 cells; [7]): 0.0007 µM; IC50 (PANC-1 cells; [8]): 0.0007 µM
CN[C@@H](C)C(=O)N[C@H](C(=O)N1CCC[C@H]1C(=O)N[C@H]1c2ccccc2C[C@H]1OCC#CC#CCO[C@@H]1Cc2ccccc2[C@@H]1NC(=O)[C@@H]1CCCN1C(=O)[C@@H](NC(=O)[C@H](C)NC)C(C)(C)C)C(C)(C)C [Compound 119]	> 1 µM	0.0014 µM	0.0018 µM	–
CN[C@@H](C)C(=O)N[C@@H](CCCCNC(=O)c1cccc(C(=O)NCCCC[C@H](NC(=O)[C@H](C)NC)C(=O)N2C[C@@H](Oc3ccccc3)C[C@H]2C(=O)N[C@@H]2CCCc3ccccc32)c1)C(=O)N1C[C@@H](Oc2ccccc2)C[C@H]1C(=O)N[C@@H]1CCCc2ccccc21 [Compound P2-36]	–	–	–	IC50 (PANC-1 cells; [6]): > 1 µM; IC50 (PANC-1 cells; [7]): 0.079 µM; IC50 (PANC-1 cells; [8]): 0.09 µM
CN[C@@H](C)C(=O)N[C@H](C(=O)N1CCCC1C(=O)N[C@H](COCC#CC#CCOC[C@@H](NC(=O)[C@H](C)NC(=O)[C@H](NC(=O)[C@@H](C)NC)C1CCCCC1)C(C)C)C1CCCCC1)C(C)(C)C (stereo partly shown) [Compound 209]	–	0.0007 µM	0.0007 µM	–
CN[C@@H](C)C(=O)N[C@H](C(=O)N1C[C@@H](NC(=O)c2cc(C(=O)N[C@H]3C[C@@H](C(=O)N[C@H](C)c4ccc(Cl)cc4)N(C(=O)[C@@H](NC(=O)[C@H](C)NC)C(C)(C)C)C3)[nH]n2)C[C@H]1C(=O)N[C@H](C)c1ccc(Cl)cc1)C(C)(C)C [Compound P3-108]	–	–	–	IC50 (PANC-1 cells; Homo sapiens, PANC-1 cells, compound alone, read-out: IC50 (uM) in cell viability assay in PANC-1 cells, Cmpnd alone): > 1 µM; IC50 (PANC-1 cells; PANC-1 cells, + 100 ng/ml TNFa, read-out: IC50 (uM) in cell viability assay in PANC-1 cells, Cmpnd + 100 ng/ml TNFa): 0.012 µM; IC50 (PANC-1 cells; PANC-1 cells, + 300 ng/ml TRAIL, read-out: IC50 (uM) in cell viability assay in PANC-1 cells, Cmpnd + 300 ng/ml TRAIL): 0.036 µM
CN[C@@H](C)C(=O)N[C@@H](CCCCCC[C@H](NC(=O)[C@H](C)NC)C(=O)N1c2ccccc2C[C@H]1C(=O)N[C@H](C)c1ccccc1)C(=O)N1c2ccccc2C[C@H]1C(=O)N[C@H](C)c1ccccc1 [Compound 92]	> 1 µM	0.547 µM	0.798 µM	–
CN[C@@H](C)C(=O)N[C@H](C(=O)N1CCC[C@H]1CN(CCc1ccccc1)C(=O)C(F)(F)F)[C@@H](C)OCC#CC#CCN(C(=O)[C@H](C)NC)[C@H](C(=O)N1CCC[C@H]1CN(CCc1ccccc1)C(=O)C(F)(F)F)[C@@H](C)O [Compound P4-19]	–	–	–	IC50 (PANC-1 cells; [6]): > 1 µM; IC50 (PANC-1 cells; [7]): 0.005 µM; IC50 (PANC-1 cells; [8]): 0.006 µM
CN[C@@H](C)C(=O)N[C@H](C(=O)N1CCC[C@H]1C(=O)N[C@H]1c2ccccc2C[C@@H]1OC(=O)CCCC(=O)O[C@H]1Cc2ccccc2[C@@H]1NC(=O)[C@@H]1CCCN1C(=O)[C@@H](NC(=O)[C@H](C)NC)C(C)(C)C)C(C)(C)C [Compound 118]	> 1 µM	0.0007 µM	0.0008 µM	–
CN[C@@H](C)C(=O)N[C@@H](CC#CC#CC[C@H](NC(=O)[C@H](C)NC)C(=O)N1Cc2ccccc2C[C@H]1C(=O)N[C@H](C)c1ccccc1)C(=O)N1Cc2ccccc2C[C@H]1C(=O)N[C@H](C)c1ccccc1 [Compound 95]	> 1 µM	> 1 µM	> 1 µM	–
CN[C@@H](C)C(=O)N[C@@H](CCCCCC[C@H](NC(=O)[C@H](C)NC)C(=O)N1C[C@@H](F)C[C@H]1C(=O)N[C@@H]1CCCc2ccccc21)C(=O)N1C[C@@H](F)C[C@H]1C(=O)N[C@@H]1CCCc2ccccc21 [Compound 100]	> 1 µM	0.057 µM	0.052 µM	–
